These results are taken from US9145376B2, “Quinazolinone inhibitors of dynein” (The Rockefeller University, priority 2011, dated 2015).

The test system of test [1] is primary cilia of Shh-EGFP cells. The test is described as follows: Quantitative assessment of ciliogenesis (Arl13b staining, cilia size). In kind it is cell-based. Particulars: 24 hours, read-out: Primary cilia size (percent of DMSO control at a 30 μM dose). As to the method: Shh-EGFP cells [J. Hyman et al., Proc. Natl. Acad. Sci. U.S.A., (2009)], an NIH-3T3-based cell line containing a stably integrated Gli-responsive enhanced green fluorescent protein reporter, were maintained in DMEM containing 10% calf serum, 100 U/mL penicillin, and 0.1 mg/mL streptomycin. The cells were seeded into 24-well plates containing poly-D-lysine-coated 12-mm glass coverslips at a density of 30,000 cells/well and cultured for 36 hours. The cells were transferred into DMEM containing 0.5% calf serum, the antibiotics described above, and either individual compounds at a 30 μM concentration or 0.3% DMSO. After being cultured for another 24 hours, the cells were fixed in PBS containing 4% paraformaldehyde for 10 minutes at room temperature, washed 3×5 minutes with PBS, permeabilized with PBS containing 0.3% Triton X-100 for 5 minutes, and blocked overnight at 4° C. with PBS containing 5% normal goat serum, 0.1% Triton X-100, and 0.05% sodium azide. The coverslips were then incubated for 90 minutes at room temperature with blocking buffer containing rabbit polyclonal anti-Arl 13b antibody (1:3000 dilution), washed 4×5 minutes with PBS containing 0.1% Triton X-100, and incubated for 60 minutes with blocking buffer containing Alexa Fluor 488-conjugated goat polyclonal anti-rabbit IgG antibody (1:300 dilution; Invitrogen, A-11034). Following this secondary antibody incubation, nuclei were stained by incubating the cells 2×10 minutes with PBS containing 0.1% Triton X-100 and […] 4′,6-diamidino-2-phenylindole (DAPI) and washing them 2×5 minutes with PBS. The coverslips were subsequently mounted onto slides using Prolong Gold Antifade Reagent (Invitrogen) and imaged using an HC Plan Apochromat CS 20×/0.70 NA oil immersion objective on a Leica DMI6000B compound microscope equipped with a Photometric CoolSNAP HQ CCD camera and Metamorph software (Molecular Devices). Images of Arl13b staining in DMSO-treated cells were manually examined to establish a minimum threshold value for cilia staining intensity. ImageJ software was then used to define objects consisting of two or more adjacent pixels with a signal intensity equal to or greater than this threshold value, and the total object area within an individual image was used to estimate the total pixel area of primary cilia. Corresponding images of DAPI staining were processed in parallel using CellProfiler software to establish the number of nuclei per image. The average cilia size per cell within an individual image was then determined by dividing the total ciliary pixel area by the number of nuclei. Ten individual images, each containing approximately 150 cells. were used to quantify the average cilia size for each experimental condition.
Shh-EGFP cells, an NIH-3T3-based cell line containing a stably integrated Gli-responsive enhanced green fluorescent protein reporter, were maintained in DMEM containing 10% (v/v) calf serum, 100 U/mL penicillin, and 0.1 mg/mL streptomycin. The cells were seeded into 24-well plates containing poly-D-lysine-coated 12-mm glass coverslips at a density of 30,000 cells/well and cultured for 36 hours. The cells were transferred into DMEM containing 0.5% (v/v) calf serum, the antibiotics described above, and either individual dihydroquinazolinones at a 30 μM concentration or an equivalent amount of DMSO vehicle (0.3%, v/v). After being cultured for another 24 hours, the cells were fixed in PBS containing 4% (w/v) paraformaldehyde for 10 min at room temperature, washed 3×5 min with PBS, permeabilized with PBS containing 0.3% (v/v) Triton X-100 for 5 min, and blocked overnight at 4° C. with PBS containing 5% (v/v) normal goat serum, 0.1% (v/v) Triton X-100, and 0.05% (w/v) sodium azide. […]

Test [2] relates to ciliary Gli2 in Shh-EGFP cells. Description: Quantitative assessment of Hh ligand-dependent Gli2 trafficking. In kind it is cell-based. The conditions noted are these: 30 μM, 4 hours; for Basal and Shh-N-induced levels of ciliary Gli2: with or without 10% Shh-N-conditioned medium; for basal Gli2 concentrations in the primary cilium: without Shh-N. As to the method: Shh-EGFP cells were seeded into 24-well plates containing poly-D-lysine-coated 12-mm glass coverslips at a density of 65,000 cells/well and cultured for 24 hours in DMEM containing 10% calf serum, 100 U/mL penicillin, and 0.1 mg/mL streptomycin. The cells were then transferred into DMEM containing 0.5% calf serum and the antibiotics described above for 16 hours to promote primary cilia formation. The cells were next transferred into DMEM containing 0.5% calf serum, antibiotics, and either individual compounds at a 30 μM concentration or 0.3% DMSO. Each compound or vehicle treatment was conducted in the presence or absence of 10% Shh-N-conditioned medium, and the cells were cultured under these conditions for 4 hours. The cells were subsequently fixed in PBS containing 4% paraformaldehyde for 10 minutes at room temperature, washed 3×5 minutes in PBS containing 50 mM glycine, permeabilized in PBS containing 0.3% Triton X-100 […], and then blocked overnight at 4° C. in PBS containing 5% normal donkey serum, 0.1% Triton X-100, and 0.05% sodium azide. After blocking was complete, the coverslips were incubated in blocking buffer containing rabbit polyclonal anti-Arl13b antibody (1:3000 dilution), goat polyclonal anti-Gli2 antibody (1:50 dilution; R & D Systems, AF3635), and mouse monoclonal anti-γ-tubulin (1:200 dilution; Sigma-Aldrich, T5326) for 90 minutes at room temperature. The cells were then washed 4×5 minutes with PBS containing 0.1% Triton X-100 and incubated in blocking buffer containing DyLight 488-conjugated donkey polyclonal anti-goat IgG antibody (3 μg/mL; Jackson ImmunoResearch, 705-485-147), DyLight 594-conjugated donkey polyclonal […] IgG antibody (3 μg/mL; Jackson ImmunoResearch, 715-515-151), and DyLight 649-conjugated donkey polyclonal […] IgG antibody (3 μg/mL; Jackson ImmunoResearch, 711-495-152) for 60 minutes. Following, this secondary antibody incubation, nuclei were stained by incubating the cells 2×10 minutes with PBS containing 0.1% Triton X-100 and 0.5 μg/mL DAPI and washing them 2×5 minutes with PBS. The coverslips were subsequently mounted onto slides using Prolong Gold Antifade Reagent (Invitrogen) and imaged using a Plan Apochromat 63×/1.4 NA oil immersion objective on a Zeiss Axio1mager Z1 upright microscope equipped with an LSM700 laser scanning confocal head. Ciliary Gli2 levels were quantified by determining total pixel intensity within a 0.69 μm-diameter circle at the distal tip of the axoneme and subtracting background fluorescence in an adjacent region of equivalent size. At least 25 cilia were analyzed to determine the average ciliary Gli2 level for each experimental condition.

Take `N#C/C(C(=O)c1ccccc1)=C1\NC(=O)c2ccccc2N1` [Example 16, 3-oxo-2-(4-oxo-3,4-dihydroquinazolin-2(1H)-ylidene)-3-phenylpropanenitrile]: the activity at 30 µM in test [1] stood at 95%. In test [2], the “Basal and Shh-N-induced levels of ciliary Gli2” value was “unchanged”.

As for `N#C/C(C(=O)c1ccc(Cl)cc1Cl)=C1\NC(=O)c2ccccc2N1` [Example 1, 3-(2,4-dichlorophenyl)-3-oxo-2-(4-oxo-3,4-dihydroquinazolin-2(1H)-ylidene)propanenitrile], the activity at 30 µM in test [1] is 27%. In addition, in test [2], the “basal Gli2 concentrations in the primary cilium” value is “increased basal Gli2 concentrations in this signaling organelle to levels comparable to that induced by Shh-N”.

For the molecule `N#C/C(C(=O)c1ccc(Cl)cc1Cl)=C1\NC(=O)c2ccc(Cl)cc2N1` [Example 31, 2-(7-chloro-4-oxo-3,4-dihydroquinazolin-2(1H)-ylidene)-3-(2,4-dichlorophenyl)-3-oxo-propanenitrile], the activity at 30 µM in test [1] was 7%. Further, the “basal Gli2 concentrations in the primary cilium” value in test [2] is listed as “increased basal Gli2 concentrations in this signaling organelle to levels comparable to that induced by Shh-N”.

Consider `N#C/C(C(=O)c1ccc(Cl)cc1)=C1\NC(=O)c2ccccc2N1` [Example 2, 3-(4-chlorophenyl)-3-oxo-2-(4-oxo-3,4-dihydroquinazolin-2(1H)-ylidene)propanenitrile], for which the activity at 30 µM in test [1] is 74%. Also, in test [2], the “Basal and Shh-N-induced levels of ciliary Gli2” value is given as “unchanged”.
